Laboratory results as given in PMC9964459, “Nornidulin, A New Inhibitor of Plasmodium falciparum Malate: Quinone Oxidoreductase (PfMQO) from Indonesian Aspergillus sp. BioMCC f.T.8501” (Pharmaceuticals, 2023).

Biological target: T1, Plasmodium falciparum malate:quinone oxidoreductase (PfMQO) (Plasmodium falciparum, UniProt C6KT09)
T1 construct: gene PF3D7_0616800; PfMQO-membrane fraction from PfMQO-expressing recombinant Escherichia coli
T1 sequence (C6KT09 1-521): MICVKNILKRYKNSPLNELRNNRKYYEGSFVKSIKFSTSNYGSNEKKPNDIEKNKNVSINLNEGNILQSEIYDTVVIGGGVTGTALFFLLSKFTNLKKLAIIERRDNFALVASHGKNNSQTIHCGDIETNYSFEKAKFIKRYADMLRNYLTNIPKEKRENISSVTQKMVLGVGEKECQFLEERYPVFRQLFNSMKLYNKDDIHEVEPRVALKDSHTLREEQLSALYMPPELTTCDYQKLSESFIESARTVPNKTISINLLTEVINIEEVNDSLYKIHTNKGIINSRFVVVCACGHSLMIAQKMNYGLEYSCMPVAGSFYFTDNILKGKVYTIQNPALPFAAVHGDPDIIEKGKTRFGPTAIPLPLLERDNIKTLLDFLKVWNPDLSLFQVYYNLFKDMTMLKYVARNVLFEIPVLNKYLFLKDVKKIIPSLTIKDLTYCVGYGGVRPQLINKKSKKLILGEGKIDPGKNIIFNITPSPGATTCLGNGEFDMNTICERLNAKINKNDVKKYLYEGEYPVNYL
Assay: DCIP-reduction enzyme assay (A600, malate/decylubiquinone) with recombinant PfMQO membrane fraction
Format: biochemical

C/C=C(\C)c1c(Cl)c(O)c(C)c2c1Oc1c(Cl)c(O)c(Cl)c(C)c1C(=O)O2 [Fr10, nornidulin]
IC50: 51 µM
